Experimental data taken from patent US20210128528A1, “USE OF 5HT2A INVERSE AGONISTS FOR TREATING PSYCHOSIS” (Axovant Sciences GmbH, priority 2017, published 2021).

Experiments:
[1] = biological target: T1, 5HT2A receptor (h5HT2A-Dx-U2OS cells) (Homo sapiens, UniProt P28223); assay: cell-based
T1 construct: beta-galactosidase enzyme fragment for complementation (the print says only EFC; from my own knowledge of PathHunter it is the ProLink tag on the receptor's C-terminus); host or cells: U2OS (h5HT2A-Dx-U2OS)
Protocol: Cells were incubated with nelotanserin or clozapine for 90 minutes at 37° C. followed by addition of DiscoverX detection reagent for 60 minutes, after which luminescence was measured.
Drug treatment was performed for 90 minutes at 37 degrees Celsius followed by addition of DiscoverX detection reagent for 60 minutes at room temperature, after which luminescence was measured.
Cells were incubated with nelotanserin or clozapine for 90 minutes at 37° C. followed by addition of DiscoveRx detection reagent for 60 minutes, after which luminescence was measured.

C57Bl/6J male mice [2] = assay: PCP-induced hyperlocomotion in open field activity monitors; assay type: in vivo; conditions: Mus musculus
Protocol: PCP-induced hyperlocomotion was measured in open field activity monitor chambers. […] All studies were performed in a blinded and randomized manner and potencies were calculated. Clozapine was used as the basis for comparison.
The data depicted in FIGS. 2-5, summarizes Mouse data—Male C57BL6J mice from JAX ˜12 weeks old. Studies were randomized and investigator was blinded. The figures contain three ways of analyzing the data obtained from the Versamax open field activity monitors on the same cohort of mice. The infrared beams in the chambers measure breaks in X, Y, and Z planes. Typically data are reported for Horizontal beam breaks and sometimes for distance travelled and stereotypy in studies involving PCP.
Male C57BL6 mice from JAX were used at 12-15 weeks of age, n=6 for all conditions). All mice were naïve at the time of testing. […] Mice were then treated with 0.9% saline (i.p.) or PCP (10 mg/kg, i.p.) and monitored for an additional 60 minutes. All measurements were recorded by VersaMax software, and experimenter was blinded to treatment. The summary figure is a compilation of distance travelled over the last 60 minutes with drug treatment. […] Data analyzed via two-way ANOVA followed by Sidak post hoc test to assess statistical differences between animals which received saline of PCP following nelotanserin, clozapine, or vehicle.
Male C57BL6 mice from JAX were used at 12-15 weeks of age, n=6 for all conditions). All mice were naïve at the time of testing. […] Mice were then treated with 0.9% saline (i.p.) or PCP (10 mg/kg, i.p.) and monitored for an additional 60 minutes. All measurements were recorded by VersaMax software, and experimenter was blinded to treatment. The summary figure is a compilation of the sum of beam breaks (X, Y plane) monitored over the last 60 minutes. […] Data analyzed via two-way ANOVA followed by Sidak post hoc test to assess statistical differences between animals which received saline of PCP following nelotanserin, clozapine, or vehicle.
Male C57BL6 mice from JAX were used at 12-15 weeks of age, n=6 for all conditions). All mice were naïve at the time of testing. […] Mice were then treated with 0.9% saline (i.p.) or PCP (10 mg/kg, i.p.) and monitored for an additional 60 minutes. All measurements were recorded by VersaMax software, and experimenter was blinded to treatment. The summary figure is a compilation of the sum of beam breaks (X, Y, Z stereotypy measures) monitored over the last 60 minutes. […] Data analyzed via two-way ANOVA followed by Sidak post hoc test to assess statistical differences between animals which received saline of PCP following nelotanserin, clozapine, or vehicle.

[3] = test system: serotonin-induced intracellular calcium release; assay: serotonin-induced intracellular calcium release assay; assay type: cell-based; conditions: FIG. 6
5HT2C = biological target: T2, 5HT2C (Homo sapiens, UniProt P28335); assay: selectivity of 5HT2A inverse agonist over 5HT2C; conditions: 5HT2A over 5HT2C
T2 sequence (P28335 33-458): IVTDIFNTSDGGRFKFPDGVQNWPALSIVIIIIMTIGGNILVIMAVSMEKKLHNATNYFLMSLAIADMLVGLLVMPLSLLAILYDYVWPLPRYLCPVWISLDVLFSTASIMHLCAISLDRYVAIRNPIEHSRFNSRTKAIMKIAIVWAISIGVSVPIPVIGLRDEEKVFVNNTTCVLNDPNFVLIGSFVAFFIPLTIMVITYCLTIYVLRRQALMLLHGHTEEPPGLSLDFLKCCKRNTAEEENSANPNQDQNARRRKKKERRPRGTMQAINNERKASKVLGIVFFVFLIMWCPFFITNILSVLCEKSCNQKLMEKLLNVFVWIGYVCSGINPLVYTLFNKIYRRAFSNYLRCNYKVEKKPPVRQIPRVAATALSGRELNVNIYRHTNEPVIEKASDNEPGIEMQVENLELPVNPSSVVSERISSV

C57Bl/6J male mice [4] = assay: DOI-induced head twitch response in mice; assay type: in vivo; conditions: Mus musculus
[5] = test system: panel of 66 receptors and ion channels; assay: panel of 66 receptors and ion channels
[6] = compound alone, βarrestin2 recruitment

T1 sequence (P28223 whole entry, the tested form may be a part): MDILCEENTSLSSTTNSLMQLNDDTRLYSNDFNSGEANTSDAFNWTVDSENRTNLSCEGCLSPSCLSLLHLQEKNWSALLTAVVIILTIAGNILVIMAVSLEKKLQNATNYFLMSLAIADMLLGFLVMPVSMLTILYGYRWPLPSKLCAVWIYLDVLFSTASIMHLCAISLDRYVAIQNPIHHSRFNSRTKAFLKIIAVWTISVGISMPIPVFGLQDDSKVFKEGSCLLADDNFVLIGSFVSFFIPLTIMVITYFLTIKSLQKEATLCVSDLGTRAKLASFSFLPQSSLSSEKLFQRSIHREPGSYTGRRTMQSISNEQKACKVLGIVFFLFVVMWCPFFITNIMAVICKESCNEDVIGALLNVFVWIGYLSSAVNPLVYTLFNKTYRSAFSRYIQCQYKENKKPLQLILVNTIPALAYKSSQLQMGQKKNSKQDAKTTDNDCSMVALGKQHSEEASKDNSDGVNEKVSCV

| Structure (SMILES) | % Max of 5HT [1, 6] [%] | ED50 (C57Bl/6J male mice [2]; ip, 1 h, beam breaks X, Y, Z, nelotanserin 1-10 mg/kg i.p., PCP 10 mg/kg i.p., last 60 minutes, read-out: ED 50 (95% confidence limits), stereotypy counts of FIG. 4) [mg/kg] | ED50 (C57Bl/6J male mice [2]; ip, 1 h, horizontal beam breaks (X, Y plane), nelotanserin 1-10 mg/kg i.p., PCP 10 mg/kg i.p., last 60 minutes, read-out: ED 50 (95% confidence limits), beam breaks data of FIG. 3) [mg/kg] | ED50 (C57Bl/6J male mice [2]; ip, 1 h, nelotanserin 1-10 mg/kg i.p., PCP 10 mg/kg i.p., last 60 minutes, read-out: ED 50 (95% confidence limits), total distance traveled data of FIG. 2) [mg/kg] | ED50 (C57Bl/6J male mice [2]; i.p., 30 minutes before PCP 10 mg/kg i.p., read-out: ED50 (95% CL), inhibition of PCP-induced hyperlocomotor activity) [mg/kg] | serotonin-induced intracellular calcium release [3] | potency relative to pimavanserin or clozapine, intracellular calcium release ([3]; serotonin-induced) | selectivity over 5HT2C (5HT2C) [fold] | ED50 (C57Bl/6J male mice [4]; read-out: ED50 (95% CL), block of DOI-induced head twitches) [mg/kg] | ED50 (C57Bl/6J male mice [4]; read-out: ED 50 (95% confidence limits), DOI-induced head twitch of FIG. 5) [mg/kg] | EC50 [1] [nM] | Fold [1, 6] [Fold] | IC50 ([1]; serotonin-induced, h5HT2A-Dx-U2OS cells, 90 minutes at 37° C., read-out: IC50 (SEM), antagonist of the recruitment of β-arrestin 2 to the 5HT2A receptor) [nM] | activity in a panel of 66 receptors and ion channels [5] |
| --- | --- | --- | --- | --- | --- | --- | --- | --- | --- | --- | --- | --- | --- | --- |
| NCCc1c[nH]c2ccc(O)cc12 [Compound 5HT, serotonin, reference compound] | 98.20 | – | – | – | – | – | – | – | – | – | – | – | – | – |
| COc1ccc(NC(=O)Nc2ccc(F)cc2F)cc1-c1c(Br)cnn1C [Nelotanserin, nelotanserin] | −2.21 | 3.8 | 4.3 | 3 | 3 | inhibited | about 2 fold | 80 | 2.4 | 2.4 | 3.74 | 0.90 | 3.74 | inactive |
